Legend:
[1] = biological target: recombinant human cannabinoid 1 receptor (CB1) (Homo sapiens, UniProt P21554); assay: [35S]GTPγS binding assay, antagonism against WIN 55,212-2; type: biochemical; details: compound at 1 μM against WIN 55,212-2 dose response; CHO-CB1 membranes; 100% = effect of internal standard CB1-antagonist
Experimental: The percentage of catalepsy is determined according to the following formula: % Catalepsy=arithmetic mean/6×100 Antagonistic Assay: Materials and Methods. Membrane Preparation:
Chinese hamster ovary (CHO) cells stably expressing recombinant human cannabinoid 1 receptor (CB1) were cultured in nutrient mixture Ham's F 12 supplemented with 10% heat-inactivated fetal bovine serum, 2 mM L-glutamine, 50 U/ml penicillin, 50 U/ml streptomycin and 0.5 mg/ml geneticin. In order to obtain cells, culture flasks were washed twice with phosphate buffered saline and scraped. Then, cells were collected by centrifugation (200×g, 10 min) and stored dry at −80° C. Cells were homogenized in ice-cold 20 mM HEPES, 10 mM EDTA (pH 7.5) and centrifuged at 40,000×g for 15 min at 4° C. The pellet was resuspended in 20 mM HEPES, 0.1 mM EDTA (pH 7.5) and centrifuged for 15 min at 4° C. The final pellet was resuspended in 20 mM HEPES, 0.1 mM EDTA (pH 7.5), and divided in aliquots and stored at −80° C. until use.
[^35S]GTPγS Binding Assay:
The reaction was performed in 96-well plates. Membranes (15 µg protein/well) were incubated for 60 min at 30° C. in buffer (50 mM HEPES, 100 mM KCl, 5 mM MgCl2, 1 mM EDTA, 0.1% wt/vol bovine serum albumin, 5 μM GDP, saponin (10 μg/ml), 0.5 nM [^35S]GTPγS, pH 7.4) with compound at 1 μM final concentration in either the absence or presence of dose response curve of agonist WIN 55,212-2 between 3 nM and 3 μM. The incubation was terminated by rapid filtration through Millipore Multiscreen glass fiber FB, and rinsed two-times with ice-cold assay buffer. Filter plates were dried and 30 μl of scintillation liquid was added. Radioactivity was determined using Wallac Microbeta Trilux. Each experiment was performed at least in duplicate. A WIN 55,212-2 dose-response was systematically performed.
The average of basal [^35S]GTPγS binding was subtracted from all binding data. In order to compare the antagonism results from one screening campaign to another one, the difference between the maximal agonist effect of WIN 55,212-2 alone, and the maximal antagonism effect due to WIN 55,212-2 with an internal standard CB1-antagonist was defined as 100%.

[2] = biological target: T1, CB1 receptor (Homo sapiens, UniProt P21554); assay: In-vitro determination of affinity to CB1/CB2 receptors (radioligand [3H]-CP55940); details: transfected human receptor, binding
T1 construct: purchased Receptor Biology, Inc
T1 sequence (P21554 whole entry): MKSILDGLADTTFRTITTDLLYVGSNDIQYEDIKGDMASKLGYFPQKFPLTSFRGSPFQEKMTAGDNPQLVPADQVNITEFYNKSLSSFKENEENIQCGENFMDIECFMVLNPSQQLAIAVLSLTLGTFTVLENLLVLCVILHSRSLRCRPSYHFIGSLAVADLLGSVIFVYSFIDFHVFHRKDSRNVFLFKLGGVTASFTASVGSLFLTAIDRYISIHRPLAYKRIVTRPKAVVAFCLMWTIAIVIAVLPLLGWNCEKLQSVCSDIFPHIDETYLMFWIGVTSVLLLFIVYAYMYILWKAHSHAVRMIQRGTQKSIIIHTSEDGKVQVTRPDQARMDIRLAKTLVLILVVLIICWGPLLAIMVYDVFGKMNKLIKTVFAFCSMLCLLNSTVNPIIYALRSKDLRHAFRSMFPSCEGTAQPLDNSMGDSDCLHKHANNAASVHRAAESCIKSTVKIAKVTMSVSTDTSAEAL
Experimental: Pharmacological Data: Pharmacological Methods I. In-Vitro Determination of Affinity to CB1/CB2-Receptors
The in-vitro determination of the affinity of the inventive quaternary ammonium salts of substituted pyrazoline compounds to CB1/CB2-Rezeptors is carried out as described in the publication of Ruth A. Ross, Heather C. Brockie et al., “Agonist-inverse agonist characterization at CB1 and CB2 cannabinoid receptors of L-759633, L759656 and AM630”, British Journal of Pharmacology, 126, 665-672, (1999), whereby the transfected human CB1 and CB2 receptors of Receptor Biology, Inc. are used. The radioligand used for both receptors is [^3H]-CP55940. The respective parts of the description are hereby incorporated by reference and forms part of the present disclosure.
The affinity of the inventive substituted pyrazoline compounds to CB1/CB2 receptors was determined as described above.

Chain of recombinant human cannabinoid 1 receptor (CB1) (P21554 whole entry): as above

| Antagonism (%) [1] [%] | IC50 [2] [nM] | SMILES |
| --- | --- | --- |
| 48 |  | C[C@H]1C(C(=O)NN2CCc3ccccc32)=NN(c2ccc(Cl)cc2Cl)[C@H]1c1ccc(F)cc1 (relative stereo) [Example 8, cis-1-(2,4-dichlorophenyl)-5-(4-fluorophenyl)-N-(indolin-1-yl)-4-methyl-4,5-dihydro-1H-pyrazole-3-carboxamide] |
| 70 | 100 | C[C@H]1C(C(=O)NN2CCc3ccccc32)=NN(c2ccc(Cl)cc2Cl)[C@H]1c1ccc(Cl)cc1 [Example 3, (4R,5R)-5-(4-chlorophenyl)-1-(2,4-dichlorophenyl)-N-(indolin-1-yl)-4-methyl-4,5-dihydro-1H-pyrazole-3-carboxamide] |
| 16 ± 15 | 128 | CC1Cc2ccccc2N1NC(=O)C1=NN(c2ccc(Cl)cc2Cl)[C@@H](c2ccc(Cl)cc2)[C@H]1C (relative stereo) [Example 5, cis-5-(4-chlorophenyl)-1-(2,4-dichlorophenyl)-4-methyl-N-(2-methylindolin-1-yl)-4,5-dihydro-1H-pyrazole-3-carboxamide] |
| 67 ± 3 | 39 | C[C@@H]1C(C(=O)NN2CCc3ccccc32)=NN(c2ccc(Cl)cc2Cl)[C@H]1c1ccc(Br)cc1 (relative stereo) [Example 7, trans-5-(4-bromophenyl)-1-(2,4-dichlorophenyl)-N-(indolin-1-yl)-4-methyl-4,5-dihydro-1H-pyrazole-3-carboxamide] |
